From BindingDB's records for doi:10.1021/jm060797q (Teikyo University, 2006) come the findings set out here.

The structures appear in SMILES notation.

As a reminder, the IC50 is the concentration that inhibits the measured activity by half. Read a high IC50 as a need for much substance.

This assay in a line: Antagonist activity against 1-alpha,25-dihydroxy vitamin D3-induced HL60 cell differentiation by NBT reduction method.
Compound `C=C1/C(=C\C=C2/CCC[C@]3(C)[C@@H]([C@H](C)C[C@@H]4OC(=O)C(=C)[C@H]4CCCC)CC[C@@H]23)C[C@@H](O)[C@H](C)[C@@H]1O` had an IC50 of 6.7 nM.

As for `C=C1/C(=C\C=C2/CCC[C@]3(C)[C@@H]([C@H](C)C[C@@H]4OC(=O)C(=C)[C@H]4CC)CC[C@@H]23)C[C@@H](O)[C@H](CCCO)[C@@H]1O`, it took 8.4 nM to reach half-maximal inhibition (IC50).

`C=C1/C(=C\C=C2/CCC[C@]3(C)[C@@H]([C@H](C)C[C@H]4OC(=O)C(=C)[C@@H]4CCCC)CC[C@@H]23)C[C@@H](O)[C@H](C)[C@@H]1O`: the half-inhibitory concentration (IC50) worked out at 6.7 nM.

Consider `C=C1C(=O)O[C@H](C[C@@H](C)[C@H]2CC[C@H]3/C(=C/C=C4/C[C@@H](O)C[C@H](O)C4=C)CCC[C@]23C)[C@@H]1CCC`, for which the IC50 came to 6 nM.

In the case of `C=C1/C(=C\C=C2/CCC[C@]3(C)[C@@H]([C@H](C)C[C@H]4OC(=O)C(=C)[C@@H]4CCCC)CC[C@@H]23)C[C@@H](O)C[C@@H]1O`, half-maximal inhibition (IC50) required 8.2 nM.

With `C=C1/C(=C\C=C2/CCC[C@]3(C)[C@@H]([C@H](C)C[C@@H]4OC(=O)C(=C)[C@H]4CCCC)CC[C@@H]23)C[C@@H](O)[C@H](CCCO)[C@@H]1O`, the half-maximal inhibitory concentration (IC50) worked out at 8.8 nM.

With `C=C1/C(=C\C=C2/CCC[C@]3(C)[C@@H]([C@H](C)C[C@H]4OC(=O)C(=C)[C@@H]4CC)CC[C@@H]23)C[C@@H](O)[C@H](OCCCO)[C@@H]1O`, the IC50 amounted to 8.4 nM.

In turn, `C=C1/C(=C\C=C2/CCC[C@]3(C)[C@@H]([C@H](C)C[C@H]4OC(=O)C(=C)[C@H]4CCC)CC[C@@H]23)C[C@@H](O)[C@H](CCCO)[C@@H]1O` gave a half-inhibitory concentration (IC50) of 6.3 nM.

`C=C1/C(=C\C=C2/CCC[C@]3(C)[C@@H]([C@H](C)C[C@@H]4OC(=O)C(=C)[C@@H]4CCC)CC[C@@H]23)C[C@@H](O)[C@H](CCCO)[C@@H]1O` returned an IC50 of 6.3 nM.

Turning to `C=C1/C(=C\C=C2/CCC[C@]3(C)[C@@H]([C@H](C)C[C@H]4OC(=O)C(=C)[C@H]4CC)CC[C@@H]23)C[C@@H](O)[C@H](OCCCO)[C@@H]1O`, inhibition was half-maximal at 8.4 nM (IC50).

In the case of `C=C1/C(=C\C=C2/CCC[C@]3(C)[C@@H]([C@H](C)C[C@@H]4OC(=O)C(=C)[C@@H]4CC(C)C)CC[C@@H]23)C[C@@H](O)[C@H](OCCCO)[C@@H]1O`, the IC50 is 9.3 nM.

As for `C=C1C(=O)O[C@H](C[C@@H](C)[C@H]2CC[C@H]3/C(=C/C=C4/C[C@@H](O)[C@H](C)[C@H](O)C4=C)CCC[C@]23C)[C@@H]1C`, the IC50 was determined as 8.1 nM.

`C=C1/C(=C\C=C2/CCC[C@]3(C)[C@@H]([C@H](C)C[C@@H]4OC(=O)C(=C)[C@@H]4C)CC[C@@H]23)C[C@@H](O)[C@H](OCCCO)[C@@H]1O` had a concentration for half-maximal inhibition (IC50) of 6.1 nM.

In turn, `C=C1/C(=C\C=C2/CCC[C@]3(C)[C@@H]([C@H](C)C[C@@H]4OC(=O)C(=C)[C@H]4CC(C)C)CC[C@@H]23)C[C@@H](O)[C@H](C)[C@@H]1O` returned an IC50 of 11 nM.

`C=C1/C(=C\C=C2/CCC[C@]3(C)[C@@H]([C@H](C)C[C@H]4OC(=O)C(=C)[C@@H]4CC)CC[C@@H]23)C[C@@H](O)[C@H](CCCO)[C@@H]1O`: the half-inhibitory concentration (IC50) was determined as 8.4 nM.

`C=C1C(=O)O[C@H](C[C@@H](C)[C@H]2CC[C@H]3/C(=C/C=C4/C[C@@H](O)C[C@H](O)C4=C)CCC[C@]23C)[C@@H]1CC(C)C` registered a half-inhibitory concentration (IC50) of 10 nM.

With `C=C1/C(=C\C=C2/CCC[C@]3(C)[C@@H]([C@H](C)C[C@H]4OC(=O)C(=C)[C@@H]4CC)CC[C@@H]23)C[C@@H](O)C[C@@H]1O`, half-maximal inhibition (IC50) was put at 8.6 nM.

As to `C=C1/C(=C\C=C2/CCC[C@]3(C)[C@@H]([C@H](C)C[C@@H]4OC(=O)C(=C)[C@H]4CCC)CC[C@@H]23)C[C@@H](O)[C@H](OCCCO)[C@@H]1O`, the IC50 was determined as 6.3 nM.

Take `C=C1/C(=C\C=C2/CCC[C@]3(C)[C@@H]([C@H](C)C[C@H]4OC(=O)C(=C)[C@@H]4CC(C)C)CC[C@@H]23)C[C@@H](O)[C@H](CCCO)[C@@H]1O`: the concentration for half-maximal inhibition (IC50) is 9.3 nM.

Compound `C=C1/C(=C\C=C2/CCC[C@]3(C)[C@@H]([C@H](C)C[C@H]4OC(=O)C(=C)[C@H]4CC(C)C)CC[C@@H]23)C[C@@H](O)[C@H](OCCCO)[C@@H]1O` displayed an IC50 of 9.3 nM.

Regarding `C=C1/C(=C\C=C2/CCC[C@]3(C)[C@@H]([C@H](C)C[C@@H]4OC(=O)C(=C)[C@@H]4CC(C)C)CC[C@@H]23)C[C@@H](O)[C@H](CCCO)[C@@H]1O`, the IC50 came to 9.3 nM.

Take `C=C1/C(=C\C=C2/CCC[C@]3(C)[C@@H]([C@H](C)C[C@@H]4OC(=O)C(=C)[C@@H]4C)CC[C@@H]23)C[C@@H](O)[C@H](CCCO)[C@@H]1O`: half-maximal inhibition (IC50) required 6.2 nM.

In turn, `C=C1/C(=C\C=C2/CCC[C@]3(C)[C@@H]([C@H](C)C[C@H]4OC(=O)C(=C)[C@H]4CC(C)C)CC[C@@H]23)C[C@@H](O)[C@H](C)[C@@H]1O` came in with an IC50 of 11 nM.

Turning to `C=C1/C(=C\C=C2/CCC[C@]3(C)[C@@H]([C@H](C)C[C@H]4OC(=O)C(=C)[C@@H]4CCC)CC[C@@H]23)C[C@@H](O)[C@H](CCCO)[C@@H]1O`, the IC50 stood at 6.3 nM.

In the case of `C=C1/C(=C\C=C2/CCC[C@]3(C)[C@@H]([C@H](C)C[C@@H]4OC(=O)C(=C)[C@H]4CCC)CC[C@@H]23)C[C@@H](O)[C@H](CCCO)[C@@H]1O`, the IC50 was determined as 6.3 nM.

In the case of `C=C1C(=O)O[C@@H](C[C@@H](C)[C@H]2CC[C@H]3/C(=C/C=C4/C[C@@H](O)[C@H](C)[C@H](O)C4=C)CCC[C@]23C)[C@@H]1C`, the IC50 was determined as 6.8 nM.

`C=C1/C(=C\C=C2/CCC[C@]3(C)[C@@H]([C@H](C)C[C@H]4OC(=O)C(=C)[C@@H]4CCCC)CC[C@@H]23)C[C@@H](O)[C@H](CCCO)[C@@H]1O` displayed a half-inhibitory concentration (IC50) of 8.8 nM.

For the compound `C=C1/C(=C\C=C2/CCC[C@]3(C)[C@@H]([C@H](C)C[C@@H]4OC(=O)C(=C)[C@@H]4CC)CC[C@@H]23)C[C@@H](O)[C@H](CCCO)[C@@H]1O`, the concentration for half-maximal inhibition (IC50) amounted to 8.4 nM.

The compound `C=C1/C(=C\C=C2/CCC[C@]3(C)[C@@H]([C@H](C)C[C@@H]4OC(=O)C(=C)[C@@H]4CC)CC[C@@H]23)C[C@@H](O)[C@H](OCCCO)[C@@H]1O` came in with an IC50 of 8.4 nM.

In the case of `C=C1/C(=C\C=C2/CCC[C@]3(C)[C@@H]([C@H](C)C[C@H]4OC(=O)C(=C)C4(C)C)CC[C@@H]23)C[C@@H](O)C[C@@H]1O`, half-maximal inhibition (IC50) was put at 6 nM.

For `C=C1/C(=C\C=C2/CCC[C@]3(C)[C@@H]([C@H](C)C[C@H]4OC(=O)C(=C)[C@@H]4C)CC[C@@H]23)C[C@@H](O)[C@H](OCCCO)[C@@H]1O`, the concentration for half-maximal inhibition (IC50) was 6.1 nM.

In turn, `C=C1/C(=C\C=C2/CCC[C@]3(C)[C@@H]([C@H](C)C[C@@H]4OC(=O)C(=C)[C@@H]4CC(C)C)CC[C@@H]23)C[C@@H](O)[C@H](C)[C@@H]1O` showed an IC50 of 11 nM.

The compound `C=C1/C(=C\C=C2/CCC[C@]3(C)[C@@H]([C@H](C)C[C@H]4OC(=O)C(=C)[C@H]4CCCC)CC[C@@H]23)C[C@@H](O)[C@H](C)[C@@H]1O` gave an IC50 of 6.7 nM.

`C=C1/C(=C\C=C2/CCC[C@]3(C)[C@@H]([C@H](C)C[C@H]4OC(=O)C(=C)[C@H]4CCC)CC[C@@H]23)C[C@@H](O)[C@H](C)[C@@H]1O` gave an IC50 of 6.3 nM.

In the case of `C=C1C(=O)O[C@@H](C[C@@H](C)[C@H]2CC[C@H]3/C(=C/C=C4/C[C@@H](O)C[C@H](O)C4=C)CCC[C@]23C)[C@@H]1CCC`, 6 nM corresponded to half-maximal inhibition (IC50).

On to `C=C1/C(=C\C=C2/CCC[C@]3(C)[C@@H]([C@H](C)C[C@H]4OC(=O)C(=C)[C@H]4CCCC)CC[C@@H]23)C[C@@H](O)[C@H](CCCO)[C@@H]1O`, for which the midpoint of inhibition, the IC50, lay at 8.8 nM.

For the compound `C=C1/C(=C\C=C2/CCC[C@]3(C)[C@@H]([C@H](C)C[C@H]4OC(=O)C(=C)[C@@H]4CC(C)C)CC[C@@H]23)C[C@@H](O)[C@H](C)[C@@H]1O`, the IC50 was determined as 11 nM.

For the compound `C=C1/C(=C\C=C2/CCC[C@]3(C)[C@@H]([C@H](C)C[C@@H]4OC(=O)C(=C)[C@@H]4CC)CC[C@@H]23)C[C@@H](O)C[C@@H]1O`, the IC50 is 8.6 nM.

Compound `C=C1/C(=C\C=C2/CCC[C@]3(C)[C@@H]([C@H](C)C[C@H]4OC(=O)C(=C)[C@@H]4CC(C)C)CC[C@@H]23)C[C@@H](O)C[C@@H]1O` displayed an IC50 of 10 nM.

Take `C=C1/C(=C\C=C2/CCC[C@]3(C)[C@@H]([C@H](C)C[C@@H]4OC(=O)C(=C)[C@@H]4CCC)CC[C@@H]23)C[C@@H](O)[C@H](OCCCO)[C@@H]1O`: it took 6.3 nM to reach half-maximal inhibition (IC50).

`C=C1/C(=C\C=C2/CCC[C@]3(C)[C@@H]([C@H](C)C[C@H]4OC(=O)C(=C)[C@@H]4CCC)CC[C@@H]23)C[C@@H](O)C[C@@H]1O` displayed an IC50 of 6 nM.

`C=C1/C(=C\C=C2/CCC[C@]3(C)[C@@H]([C@H](C)C[C@@H]4OC(=O)C(=C)[C@@H]4C)CC[C@@H]23)C[C@@H](O)[C@H](C)[C@@H]1O` displayed an IC50 of 6.8 nM.

Regarding `C=C1/C(=C\C=C2/CCC[C@]3(C)[C@@H]([C@H](C)C[C@H]4OC(=O)C(=C)[C@H]4CC(C)C)CC[C@@H]23)C[C@@H](O)[C@H](CCCO)[C@@H]1O`, 9.3 nM corresponded to half-maximal inhibition (IC50).

For `C=C1/C(=C\C=C2/CCC[C@]3(C)[C@@H]([C@H](C)C[C@H]4OC(=O)C(=C)[C@H]4CC)CC[C@@H]23)C[C@@H](O)[C@H](CCCO)[C@@H]1O`, half-maximal inhibition (IC50) required 8.4 nM.

Compound `C=C1/C(=C\C=C2/CCC[C@]3(C)[C@@H]([C@H](C)C[C@H]4OC(=O)C(=C)[C@H]4CCCC)CC[C@@H]23)C[C@@H](O)[C@H](OCCCO)[C@@H]1O` yielded a half-inhibitory concentration (IC50) of 8.8 nM.

For `C=C1/C(=C\C=C2/CCC[C@]3(C)[C@@H]([C@H](C)C[C@@H]4OC(=O)C(=C)[C@@H]4CCCC)CC[C@@H]23)C[C@@H](O)[C@H](OCCCO)[C@@H]1O`, the half-maximal inhibitory concentration (IC50) amounted to 8.8 nM.

The compound `C=C1/C(=C\C=C2/CCC[C@]3(C)[C@@H]([C@H](C)C[C@H]4OC(=O)C(=C)[C@@H]4CC)CC[C@@H]23)C[C@@H](O)[C@H](C)[C@@H]1O` gave an IC50 of 6.7 nM.

The compound `C=C1C(=O)O[C@H](C[C@@H](C)[C@H]2CC[C@H]3/C(=C/C=C4/C[C@@H](O)[C@H](OCCCO)[C@H](O)C4=C)CCC[C@]23C)[C@@H]1C` gave an IC50 of 6.1 nM.

For `C=C1C(=O)O[C@H](C[C@@H](C)[C@H]2CC[C@H]3/C(=C/C=C4/C[C@@H](O)C[C@H](O)C4=C)CCC[C@]23C)[C@@H]1CCCC`, the IC50 is 8.2 nM.

`C=C1C(=O)O[C@@H](C[C@@H](C)[C@H]2CC[C@H]3/C(=C/C=C4/C[C@@H](O)C[C@H](O)C4=C)CCC[C@]23C)[C@@H]1CC(C)C` displayed an IC50 of 9.3 nM.

`C=C1/C(=C\C=C2/CCC[C@]3(C)[C@@H]([C@H](C)C[C@@H]4OC(=O)C(=C)[C@@H]4CCCC)CC[C@@H]23)C[C@@H](O)[C@H](CCCO)[C@@H]1O` displayed an IC50 of 8.8 nM.
